Assay [1] deals with triglyuride (TG) level of plasma. Briefly: Plasma triglyceride (TG) in Triton-injected mice (Experiment 2). Format: in vivo, mice of ddY strain. The note with it: Table 2, 150 mg/kg immediately and 8 hours after Triton WR-1399 500 mg/kg i.v., blood drawn 24 h after Triton. The method, then: (§1) The mice of ddY strain weighing between 25 and 30 g were fasted overnight and then Triton WR-1399(500 mg/kg) (Ruger Chemicals Co.) was intravenously injected into the mice. Immediately and 8 hours after the injection, each mouse was administered 150 mg/kg of a test compound of this invention as suspended in 1% aqueous methylcellulose.
(§2) 24 Hours after the injection of Triton, the blood was drawn from the heart. The cholesterol (TC) and triglyuride (TG) levels of plasma were determined with RaBASuper (Chugai Seiyaku K.K., Japan).
(§3) As a positive control, chlofibrate were used.

Assay [2] has as its system lipid peroxide level (TBA) of blood. Briefly: Lipid peroxide (TBA) level of blood in alloxan-treated mice (Experiment 1). Format: in vivo, male mice of ddY strain. The note with it: Table 1, 300 mg/kg orally, 22 h after alloxan 75 mg/kg i.v., blood drawn 48 h after alloxan, vs untreated mice. Here is the method:
(§4) Male mice of ddY strain weighing between 25 and 30 g were divided into groups of 10 members each and administered intravenously 75 mg/kg of alloxan. Twenty-two hours later, each mouse was administered orally 300 mg/kg of a test compound of this invention as suspended in 1% gum arabic. […] The lipid peroxide level (TBA) of blood was determined with Lipoperoxide-Test Wako (Wako Pure Chemical Industries, Ltd., Japan). The level of blood sugar (BG) was determined with New Blood Sugar Test (Berlinger Mannheim AG., West Germany). […] As a positive control, tocopherol was used.

The test system of assay [3] is cholesterol (TC) level of plasma. Briefly: Plasma cholesterol (TC) in Triton-injected mice (Experiment 2). Format: in vivo, mice of ddY strain. The settings on record: Table 2, 150 mg/kg immediately and 8 hours after Triton WR-1399 500 mg/kg i.v., blood drawn 24 h after Triton. The method, then: as §1, §2, §3
Assay [4] deals with platelets (platelet rich plasma). Briefly: Inhibition of platelet aggregation in platelet rich plasma (Experiment 3). The settings on record: Table 3 (own numbering), compound 1×10^-4 M. It is filed as cell-based, SD strain rats. Here is the method:
Platelet rich plasma samples were prepared from the blood of SD strain rats, and to 0.5 ml of the samples, test compounds in the form of a solution in dimethyl sulfoxide (DMSO) were added in such an amount that the concentration of the compounds in the mixture was 1×10^-4 M. The assay media containing aspirin were used as a control. After incubation for one minute, arachidonic acid, collagen and adenosine diphosphate (ADP) were added to the mixture in concentrations of 1×10^-4 M, 1.5×10^-3 M and 1×10^-6 M, respectively, to aggregate the platelets. The aggregation level was determined with an aggregometer. CORNING-EEL MODEL 16P (Manufactured by Evans Electro Selenium Ltd.) and the percent inhibition of platelets was calculated from the following equation: [formula]

Assay [5] concerns level of blood sugar (BG). Briefly: Blood sugar (BG) level in alloxan-treated mice (Experiment 1). It is filed as in vivo, male mice of ddY strain. The settings on record: Table 1, 300 mg/kg orally, 22 h after alloxan 75 mg/kg i.v., blood drawn 48 h after alloxan, vs untreated mice. Here is the method: as §4

Regarding “ethyl 4-methoxydibenz[b,f][1,4]oxazepine-8-carboxylate [Compound 6 (Table 3)]”, the “Percent Reduction TG (x ± S.E.)” value in assay [1] (listed as 1) stood at 20.8%; in assay [1] (listed as 2), 23.5%. Further, the “Percent Reduction TBA (x ± S.E.)” value in assay [2] (listed as 1) is listed as 12.3%; in assay [2] (listed as 2), 25.5%. For the same substance, the “Percent Reduction TC (x ± S.E.)” value in assay [3] (listed as 1) turned out to be 19.3%; in assay [3] (listed as 2), 21.4%. In addition, the “Percent Inhibition of Aggregation, ADP” value in assay [4] (aggregation by ADP 1×10^-6 M) came to 20%. For the same substance, the “Percent Inhibition of Aggregation, Arachidonic acid” value in assay [4] (aggregation by arachidonic acid 1×10^-4 M) came to 40%. In assay [4] (aggregation by collagen 1.5×10^-3 M), the “Percent Inhibition of Aggregation, Collagen” value came out at 25%. For the same substance, the “Percent Reduction BG (x ± S.E.)” value in assay [5] (listed as 1) worked out at 15.5%; in assay [5] (listed as 2), 22.4%.

The values above are taken from patent US4435391A, “Dibenzoxazepine derivative, and pharmaceutical composition comprising the same” (Chugai Seiyaku Kabushiki Kaisha, priority 1980, dated 1984).
